According to the NIST ThermoML archive (doi:10.1021/acs.jced.7b00227):

Tests used:
[1] = for Normal melting temperature: DTA
[2] = Molar enthalpy of transition or fusion; conditions: Crystal; DSC

O=Cc1ccccc1O [2-hydroxybenzaldehyde]
[1]
Conditions	vapor or sublimation pressure [kPa]
264.55 K, Crystal, Closed cell (Static) method	0.00232
266.52 K, Crystal, Closed cell (Static) method	0.00319
266.54 K, Metastable liquid, Closed cell (Static) method	0.00505
268.49 K, Crystal, Closed cell (Static) method	0.00453
268.5 K, Metastable liquid, Closed cell (Static) method	0.00606
270.45 K, Crystal, Closed cell (Static) method	0.00599
270.45 K, Metastable liquid, Closed cell (Static) method	0.00727
272.44 K, Metastable liquid, Closed cell (Static) method	0.00884
274.4 K, Closed cell (Static) method, Liquid	0.01038
276.37 K, Closed cell (Static) method, Liquid	0.01235
278.29 K, Closed cell (Static) method, Liquid	0.01469
280.27 K, Closed cell (Static) method, Liquid	0.01734
282.24 K, Closed cell (Static) method, Liquid	0.02049
284.23 K, Closed cell (Static) method, Liquid	0.02411
286.21 K, Closed cell (Static) method, Liquid	0.02842
288.16 K, Closed cell (Static) method, Liquid	0.03343
290.13 K, Closed cell (Static) method, Liquid	0.03878
292.14 K, Closed cell (Static) method, Liquid	0.0453
294.09 K, Closed cell (Static) method, Liquid	0.05232
296 K, Closed cell (Static) method, Liquid	0.06145
298.06 K, Closed cell (Static) method, Liquid	0.0702
300.04 K, Closed cell (Static) method, Liquid	0.08175
302.02 K, Closed cell (Static) method, Liquid	0.09355
304.24 K, Closed cell (Static) method, Liquid	0.1075
305.97 K, Closed cell (Static) method, Liquid	0.1228
307.92 K, Closed cell (Static) method, Liquid	0.1409
309.88 K, Closed cell (Static) method, Liquid	0.1603
311.9 K, Closed cell (Static) method, Liquid	0.1832
313.81 K, Closed cell (Static) method, Liquid	0.2071
315.78 K, Closed cell (Static) method, Liquid	0.2358
317.77 K, Closed cell (Static) method, Liquid	0.2661
319.78 K, Closed cell (Static) method, Liquid	0.3014
321.96 K, Closed cell (Static) method, Liquid	0.3441
323.95 K, Closed cell (Static) method, Liquid	0.3875
325.91 K, Closed cell (Static) method, Liquid	0.4352
327.88 K, Closed cell (Static) method, Liquid	0.4884
329.84 K, Closed cell (Static) method, Liquid	0.5465
331.84 K, Closed cell (Static) method, Liquid	0.611
333.81 K, Closed cell (Static) method, Liquid	0.682
335.78 K, Closed cell (Static) method, Liquid	0.7604
337.76 K, Closed cell (Static) method, Liquid	0.846
339.74 K, Closed cell (Static) method, Liquid	0.9402
341.67 K, Closed cell (Static) method, Liquid	1.042

Conditions	Normal melting temperature [°C]
[1], Crystal	-0.8

Conditions	Molar enthalpy of transition or fusion [kcal/mol]
[2]	3.18

O=Cc1cccc(O)c1 [3-hydroxybenzaldehyde]
[1]
Conditions	vapor or sublimation pressure [kPa]
309.13 K, Crystal, Calculated from knudsen effusion weight loss	8.9e-05
311.29 K, Crystal, Calculated from knudsen effusion weight loss	0.000118
313.21 K, Crystal, Calculated from knudsen effusion weight loss	0.00015
315.13 K, Crystal, Calculated from knudsen effusion weight loss	0.000189
317.29 K, Crystal, Calculated from knudsen effusion weight loss	0.000243
319.2 K, Crystal, Calculated from knudsen effusion weight loss	0.000308
321.13 K, Crystal, Calculated from knudsen effusion weight loss	0.00039
323.29 K, Crystal, Calculated from knudsen effusion weight loss	0.00049
324.86 K, Crystal, Closed cell (Static) method	0.00061
325.23 K, Crystal, Calculated from knudsen effusion weight loss	0.000616
326.85 K, Crystal, Closed cell (Static) method	0.00076
327.14 K, Crystal, Calculated from knudsen effusion weight loss	0.000763
328.83 K, Crystal, Closed cell (Static) method	0.00094
329.29 K, Crystal, Calculated from knudsen effusion weight loss	0.000957
330.84 K, Crystal, Closed cell (Static) method	0.00116
331.22 K, Crystal, Calculated from knudsen effusion weight loss	0.001188
332.78 K, Crystal, Closed cell (Static) method	0.00142
334.76 K, Crystal, Closed cell (Static) method	0.00176
336.76 K, Crystal, Closed cell (Static) method	0.00219
338.72 K, Crystal, Closed cell (Static) method	0.00269
340.73 K, Crystal, Closed cell (Static) method	0.00336
342.63 K, Crystal, Closed cell (Static) method	0.00405
344.71 K, Crystal, Closed cell (Static) method	0.00495
346.64 K, Crystal, Closed cell (Static) method	0.006
348.61 K, Crystal, Closed cell (Static) method	0.00733
350.55 K, Crystal, Closed cell (Static) method	0.00897
352.54 K, Crystal, Closed cell (Static) method	0.01085
354.49 K, Crystal, Closed cell (Static) method	0.01289
356.45 K, Crystal, Closed cell (Static) method	0.01575
358.45 K, Crystal, Closed cell (Static) method	0.01898
360.41 K, Crystal, Closed cell (Static) method	0.02275
362.4 K, Crystal, Closed cell (Static) method	0.02727
364.34 K, Crystal, Closed cell (Static) method	0.03226
366.32 K, Crystal, Closed cell (Static) method	0.03884
368.21 K, Crystal, Closed cell (Static) method	0.04637
368.31 K, Metastable liquid, Closed cell (Static) method	0.05807
370.35 K, Metastable liquid, Closed cell (Static) method	0.06605
372.25 K, Metastable liquid, Closed cell (Static) method	0.07435
374.24 K, Metastable liquid, Closed cell (Static) method	0.08475
376.14 K, Metastable liquid, Closed cell (Static) method	0.09434
378.15 K, Closed cell (Static) method, Liquid	0.1083
380.15 K, Closed cell (Static) method, Liquid	0.1217
382.09 K, Closed cell (Static) method, Liquid	0.1367
384.06 K, Closed cell (Static) method, Liquid	0.1536
386.07 K, Closed cell (Static) method, Liquid	0.1727
388 K, Closed cell (Static) method, Liquid	0.1931
389.95 K, Closed cell (Static) method, Liquid	0.2148
391.96 K, Closed cell (Static) method, Liquid	0.2415
395.88 K, Closed cell (Static) method, Liquid	0.3002
399.75 K, Closed cell (Static) method, Liquid	0.3687
403.71 K, Closed cell (Static) method, Liquid	0.454
405.31 K, Closed cell (Static) method, Liquid	0.49
407.66 K, Closed cell (Static) method, Liquid	0.5539
409.61 K, Closed cell (Static) method, Liquid	0.618
411.6 K, Closed cell (Static) method, Liquid	0.6754
413.56 K, Closed cell (Static) method, Liquid	0.751
415.52 K, Closed cell (Static) method, Liquid	0.814
417.46 K, Closed cell (Static) method, Liquid	0.902
419.41 K, Closed cell (Static) method, Liquid	0.994

Conditions	Normal melting temperature [°C]
[1], Crystal	104.5

Conditions	Molar enthalpy of transition or fusion [kcal/mol]
[2]	6.12

O=Cc1ccc(O)cc1 [4-hydroxybenzaldehyde]
[1]
Conditions	vapor or sublimation pressure [kPa]
319.14 K, Crystal, Calculated from knudsen effusion weight loss	7.6e-05
321.31 K, Crystal, Calculated from knudsen effusion weight loss	0.000101
323.2 K, Crystal, Calculated from knudsen effusion weight loss	0.000124
325.16 K, Crystal, Calculated from knudsen effusion weight loss	0.000152
327.35 K, Crystal, Calculated from knudsen effusion weight loss	0.000196
329.21 K, Crystal, Calculated from knudsen effusion weight loss	0.00024
331.15 K, Crystal, Calculated from knudsen effusion weight loss	0.000305
333.36 K, Crystal, Calculated from knudsen effusion weight loss	0.000383
334.88 K, Crystal, Closed cell (Static) method	0.00047
335.2 K, Crystal, Calculated from knudsen effusion weight loss	0.000476
336.84 K, Crystal, Closed cell (Static) method	0.00058
337.14 K, Crystal, Calculated from knudsen effusion weight loss	0.000583
338.82 K, Crystal, Closed cell (Static) method	0.00072
339.28 K, Crystal, Calculated from knudsen effusion weight loss	0.000737
340.78 K, Crystal, Closed cell (Static) method	0.00089
341.2 K, Crystal, Calculated from knudsen effusion weight loss	0.00091
342.79 K, Crystal, Closed cell (Static) method	0.00109
344.73 K, Crystal, Closed cell (Static) method	0.00133
346.72 K, Crystal, Closed cell (Static) method	0.00165
348.7 K, Crystal, Closed cell (Static) method	0.00199
350.66 K, Crystal, Closed cell (Static) method	0.00241
352.65 K, Crystal, Closed cell (Static) method	0.00296
354.62 K, Crystal, Closed cell (Static) method	0.00358
356.58 K, Crystal, Closed cell (Static) method	0.00433
358.56 K, Crystal, Closed cell (Static) method	0.00525
360.53 K, Crystal, Closed cell (Static) method	0.0064
362.52 K, Crystal, Closed cell (Static) method	0.00769
364.51 K, Crystal, Closed cell (Static) method	0.00915
366.46 K, Crystal, Closed cell (Static) method	0.01071
368.43 K, Crystal, Closed cell (Static) method	0.01274
370.43 K, Crystal, Closed cell (Static) method	0.01545
372.39 K, Crystal, Closed cell (Static) method	0.01842
374.32 K, Crystal, Closed cell (Static) method	0.02206
376.26 K, Crystal, Closed cell (Static) method	0.02606
378.18 K, Metastable liquid, Closed cell (Static) method	0.03765
378.32 K, Crystal, Closed cell (Static) method	0.03067
380.28 K, Metastable liquid, Closed cell (Static) method	0.04331
380.29 K, Crystal, Closed cell (Static) method	0.03625
382.26 K, Metastable liquid, Closed cell (Static) method	0.04915
384.18 K, Metastable liquid, Closed cell (Static) method	0.05575
385.95 K, Metastable liquid, Closed cell (Static) method	0.06255
388.15 K, Metastable liquid, Closed cell (Static) method	0.07155
390.14 K, Metastable liquid, Closed cell (Static) method	0.08085
392.11 K, Closed cell (Static) method, Liquid	0.09145
393.98 K, Closed cell (Static) method, Liquid	0.1013
396.02 K, Closed cell (Static) method, Liquid	0.1156
398.08 K, Closed cell (Static) method, Liquid	0.132
399.97 K, Closed cell (Static) method, Liquid	0.1466
402.15 K, Closed cell (Static) method, Liquid	0.1659
403.9 K, Closed cell (Static) method, Liquid	0.184
406.15 K, Closed cell (Static) method, Liquid	0.2077
407.83 K, Closed cell (Static) method, Liquid	0.2288
409.81 K, Closed cell (Static) method, Liquid	0.2537
411.77 K, Closed cell (Static) method, Liquid	0.281
413.71 K, Closed cell (Static) method, Liquid	0.315
415.68 K, Closed cell (Static) method, Liquid	0.3477
417.65 K, Closed cell (Static) method, Liquid	0.3831
419.62 K, Closed cell (Static) method, Liquid	0.4264
421.57 K, Closed cell (Static) method, Liquid	0.4738
423.73 K, Closed cell (Static) method, Liquid	0.5285
425.48 K, Closed cell (Static) method, Liquid	0.5776
427.46 K, Closed cell (Static) method, Liquid	0.6379
429.41 K, Closed cell (Static) method, Liquid	0.7018

Conditions	Normal melting temperature [°C]
[1], Crystal	117.1

Conditions	Molar enthalpy of transition or fusion [kcal/mol]
[2]	5.16
